This passage reports relative viability results from the supplement of paper PMC10307832.

Holding throughout (assay): relative viability (nuclei count vs DMSO), 5 days (fraction); higher = more cells survive
Compound in the test “Adavosertib + Lapatinib”: C=CCn1c(=O)c2cnc(Nc3ccc(N4CCN(C)CC4)cc3)nc2n1-c1cccc(C(C)(C)O)n1 [Adavosertib] + CS(=O)(=O)CCNCc1ccc(-c2ccc3ncnc(Nc4ccc(OCc5cccc(F)c5)c(Cl)c4)c3c2)o1 [Lapatinib] (partner 2 µM)
The method, boiled down: (§1)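 Cells from lung cancer lines were seeded into 1536-well plates and, one day later, dosed by pin tool. Treatments were either a single drug or a fixed dose of an anchor drug with five library-drug doses (not always all listed) in √10 steps. After 5 days, nuclei were stained in a one-step fixation (final 0.05% Triton X-100, 1% formaldehyde, 1 ug/ml Hoechst) and counted on 4× images, and relative viability is the treated-to-vehicle nuclei ratio, as the median of duplicate plates.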

Compound in the test “Adavosertib + Vorinostat”: C=CCn1c(=O)c2cnc(Nc3ccc(N4CCN(C)CC4)cc3)nc2n1-c1cccc(C(C)(C)O)n1 [Adavosertib] + O=C(CCCCCCC(=O)Nc1ccccc1)NO [Vorinostat] (partner 1 µM)
The method, boiled down:
as §1

Compound in the test “Adavosertib + Olaparib”: C=CCn1c(=O)c2cnc(Nc3ccc(N4CCN(C)CC4)cc3)nc2n1-c1cccc(C(C)(C)O)n1 [Adavosertib] + O=C(c1cc(Cc2n[nH]c(=O)c3ccccc23)ccc1F)N1CCN(C(=O)C2CC2)CC1 [Olaparib] (partner 8 µM)
The method, boiled down:
as §1

Compound in the test “Nelarabine + Bortezomib”: COc1nc(N)nc2c1ncn2[C@@H]1O[C@H](CO)[C@@H](O)[C@@H]1O [Nelarabine] + CC(C)C[C@H](NC(=O)[C@H](Cc1ccccc1)NC(=O)c1cnccn1)B(O)O [Bortezomib] (partner 0.002 µM)
The method, boiled down:
as §1

Compound in the test “Nelarabine + Phenformin”: COc1nc(N)nc2c1ncn2[C@@H]1O[C@H](CO)[C@@H](O)[C@@H]1O [Nelarabine] + N=C(N)NC(=N)NCCc1ccccc1 [Phenformin] (partner 250 µM)
The method, boiled down: as §1

In the case of EMC-BAC-2, the relative viability with Adavosertib + Lapatinib (first compound 0.01 µM) was 0.882; with Adavosertib + Lapatinib (first compound 0.03162 µM), 0.869; in the test with Adavosertib + Lapatinib (first compound 0.1 µM), 0.927; in the test with Adavosertib + Lapatinib (first compound 0.3162 µM), 0.978; with Adavosertib + Vorinostat (first compound 0.03162 µM), 0.536; in the test with Adavosertib + Vorinostat (first compound 0.1 µM), 0.431. Besides, the relative viability in the test with Adavosertib + Vorinostat (first compound 0.3162 µM) came to 0.396; with Adavosertib + Olaparib (first compound 0.03162 µM), 0.493; with Adavosertib + Olaparib (first compound 0.1 µM), 0.51; with Adavosertib + Olaparib (first compound 0.3162 µM) it was 0.453; with Nelarabine + Bortezomib (first compound 0.01 µM), 1.24; with Nelarabine + Bortezomib (first compound 0.03162 µM), 1.06. The relative viability with Nelarabine + Bortezomib (first compound 0.1 µM) is 1.05; with Nelarabine + Bortezomib (first compound 0.3162 µM) it was 1.15; with Nelarabine + Bortezomib (first compound 1 µM), 1.04; with Nelarabine + Phenformin (first compound 0.01 µM), 0.587; with Nelarabine + Phenformin (first compound 0.03162 µM), 0.463; in the test with Nelarabine + Phenformin (first compound 0.1 µM) it was 0.493. The results for the relative viability in the test with Nelarabine + Phenformin (first compound 0.3162 µM) and in the test with Nelarabine + Phenformin (first compound 1 µM) were 0.517 and 0.539, respectively.
